These molecules were tested on VEGF (assay: Hypoxia-inducible endogenous VEGF expression ELISA in HeLa cells). Conditions: Homo sapiens, HeLa, compounds 1-155, hypoxic conditions (1% O2), VEGF protein by ELISA, read-out: ELISA Activity.
Assay type: cell-based
Method in brief: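 HeLa cells held 24–48 h in hypoxia (1% O2) with a concentration series of compound; VEGF secreted into media quantified by ELISA against a standard curve. Parallel Cell Titer Glo viability under identical conditions gives CC50; EC50 from percent-inhibition curves.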
c1ccc2c3c([nH]c2c1)C(n1cccc1)CCC3 (stereo not shown) [Compound 102, 1-Pyrrol-1-yl-2,3,4,9-tetrahydro-1H-carbazole] gave an EC50 greater than 1000 nM. Molecule Cc1nnsc1C(=O)NC1CCCc2c1[nH]c1ccc(Br)cc21 (stereo not shown) [Compound 103, 4-Methyl-[1,2,3]thiadiazole-5-carboxylic acid (6-bromo-2,3,4,9-tetrahydro-1H-carbazol-1-yl)-amide] has an EC50 of 200 to 1000 nM. c1ccn(C2CCCc3c2[nH]c2ccc(N4CCOCC4)cc32)c1 (stereo not shown) [Compound 104, 6-Morpholin-4-yl-1-pyrrol-1-yl-2,3,4,9-tetrahydro-1H-carbazole] showed an EC50 greater than 1000 nM. O=C1CCCc2c1oc1ccc(Br)cc21 [Compound 105, 8-Bromo-2,3-dihydro-1H-dibenzofuran-4-one] was tested, and the EC50 was greater than 1000 nM. c1ccn(C2CCCc3c2[nH]c2ccc(N4CCCC4)cc32)c1 (stereo not shown) [Compound 106, 6-Pyrrolidin-1-yl-1-pyrrol-1-yl-2,3,4,9-tetrahydro-1H-carbazole] gave an EC50 greater than 1000 nM. For Brc1ccc2oc3c(c2c1)CCCC3Nc1ccccc1 (stereo not shown) [Compound 107, (8-Bromo-1,2,3,4-tetrahydro-dibenzofuran-4-yl)-phenyl-amine], the EC50 was greater than 1000 nM. For OC1CCCc2c1oc1ccc(Br)cc21 (stereo not shown) [Compound 108, 8-Bromo-1,2,3,4-tetrahydro-dibenzofuran-4-ol], the EC50 was greater than 1000 nM. In the case of Brc1ccc2[nH]c3c(c2c1)CCc1cnn(-c2ccccc2)c1-3 [Compound 109, 7-Bromo-1-phenyl-1,4,5,10-tetrahydro-1,2,10-triaza-cyclopenta[a]fluorine], the EC50 is reported as greater than 1000 nM. With O=C1CCCc2c1[nH]c1cc(Br)ccc21 [Compound 110, 7-Bromo-2,3,4,9-tetrahydro-carbazol-1-one] the EC50 was greater than 1000 nM. Molecule Brc1ccc2[nH]c3c(c2c1)CCCC3c1nnc(-c2ccccc2)o1 (stereo not shown) [Compound 111, 6-Bromo-1-(5-phenyl-[1,3,4]oxadiazol-2-yl)-2,3,4,9-tetrahydro-1H-carbazole] has an EC50 greater than 1000 nM. With O=C1N(c2ccccc2)C2CCCc3c2n1c1ccc(Br)cc31 (stereo not shown) [Compound 112, 7-Bromo-2-phenyl-2a,3,4,5-tetrahydro-2H-2,9b-diaza-cyclopenta[jk]fluoren-1-one] the EC50 was greater than 1000 nM. O=C(O)c1ccn(C2CCCc3c2[nH]c2ccc(Br)cc32)c1 (stereo not shown) [Compound 113, 1-(6-Bromo-2,3,4,9-tetrahydro-1H-carbazol-1-yl)-1H-pyrrole-3-carboxylic acid] gave an EC50 greater than 1000 nM. With Brc1ccc2[nH]c3c(c2c1)CCCC3NCCCn1ccnc1 (stereo not shown) [Compound 114, (6-Bromo-2,3,4,9-tetrahydro-1H-carbazol-1-yl)-(3-imidazol-1-yl-propyl)-amine] the EC50 was greater than 1000 nM. COC(=O)c1ccc2[nH]c3c(c2c1)CCCC3n1cccc1 (stereo not shown) [Compound 115, 8-Pyrrol-1-yl-6,7,8,9-tetrahydro-5H-carbazole-3-carboxylic acid methyl ester] showed an EC50 greater than 1000 nM. With Brc1ccc2[nH]c3c(c2c1)CCCC3N1CCCC1 (stereo not shown) [Compound 116, 6-Bromo-1-pyrrolidin-1-yl-2,3,4,9-tetrahydro-1H-carbazole] the EC50 was greater than 1000 nM. Molecule Cn1c2c(c3cc(Br)ccc31)CCCC2n1cccc1 (stereo not shown) [Compound 117, 6-Bromo-9-methyl-1-pyrrol-1-yl-2,3,4,9-tetrahydro-1H-carbazole] has an EC50 greater than 1000 nM. For Brc1cccc2c3c([nH]c12)C(n1cccc1)CCC3 (stereo not shown) [Compound 118, 8-Bromo-1-pyrrol-1-yl-2,3,4,9-tetrahydro-1H-carbazole], the EC50 was greater than 1000 nM. With NC(=O)c1ccc2[nH]c3c(c2c1)CCCC3n1cccc1 (stereo not shown) [Compound 119, 8-Pyrrol-1-yl-6,7,8,9-tetrahydro-5H-carbazole-3-carboxylic acid amide] the EC50 was greater than 1000 nM. O=C(O)c1ccc2[nH]c3c(c2c1)CCCC3n1cccc1 (stereo not shown) [Compound 120, 8-Pyrrol-1-yl-6,7,8,9-tetrahydro-5H-carbazole-3-carboxylic acid] gave an EC50 greater than 1000 nM. For Brc1ccc2c3c([nH]c2c1)C(n1cccc1)CCC3 (stereo not shown) [Compound 121, 7-Bromo-1-pyrrol-1-yl-2,3,4,9-tetrahydro-1H-carbazole], the EC50 was greater than 1000 nM. With Brc1ccc2[nH]c3c(c2c1)CCCC3NCCN1CCOCC1 (stereo not shown) [Compound 122, (6-Bromo-2,3,4,9-tetrahydro-1H-carbazol-1-yl)-(2-morpholin-4-yl-ethyl)-amine] the EC50 was greater than 1000 nM. O=C(NC1CCCc2c1[nH]c1ccc(Br)cc21)c1ccco1 (stereo not shown) [Compound 123, Furan-2-carboxylic acid (6-bromo-2,3,4,9-tetrahydro-1H-carbazol-1-yl)-amide] was tested, and the EC50 was 10 to 40 nM. With O=C(NC1CCCc2c1[nH]c1ccc(Br)cc21)c1cc2ccccc2o1 (stereo not shown) [Compound 124, Benzofuran-2-carboxylic acid (6-bromo-2,3,4,9-tetrahydro-1H-carbazol-1-yl)-amide] the EC50 was 200 to 1000 nM. O=C(NC1CCCc2c1[nH]c1ccc(Br)cc21)c1ccc(-c2ccc(Cl)cc2)o1 (stereo not shown) [Compound 125, 5-(4-Chloro-phenyl)-furan-2-carboxylic acid (6-bromo-2,3,4,9-tetrahydro-1H-carbazol-1-yl)-amide] showed an EC50 of 40 to 200 nM. Work on O=C(NC1CCCc2c1[nH]c1ccc(Br)cc21)c1ccc[nH]1 (stereo not shown) [Compound 126, 1H-Pyrrole-2-carboxylic acid (6-bromo-2,3,4,9-tetrahydro-1H-carbazol-1-yl)-amide] yielded an EC50 of 40 to 200 nM. O=C(NC1CCCc2c1[nH]c1ccc(Br)cc21)c1cc2ccccc2[nH]1 (stereo not shown) [Compound 127, 1H-lndole-2-carboxylic acid (6-bromo-2,3,4,9-tetrahydro-1H-carbazol-1-yl)-amide] showed an EC50 of 40 to 200 nM. O=C(NC1CCCc2c1[nH]c1ccc(Br)cc21)c1cccs1 (stereo not shown) [Compound 128, Thiophene-2-carboxylic acid (6-bromo-2,3,4,9-tetrahydro-1H-carbazol-1-yl)-amide] gave an EC50 of less than 10 nM. Work on Brc1ccc2[nH]c3c(c2c1)CCCC3c1nc2ccccc2o1 (stereo not shown) [Compound 129, 1-Benzooxazol-2-yl-6-bromo-2,3,4,9-tetrahydro-1H-carbazole] yielded an EC50 of less than 10 nM. Work on COc1ccc(C(=O)NC2CCCc3c2[nH]c2ccc(Br)cc32)cc1 (stereo not shown) [Compound 130, N-(6-Bromo-2,3,4,9-tetrahydro-1H-carbazol-1-yl)-4-methoxy-benzamide] yielded an EC50 of 10 to 40 nM. Molecule O=C(NC1CCCc2c1[nH]c1ccc(Br)cc21)c1ccc(C(F)(F)F)cc1 (stereo not shown) [Compound 131, N-(6-Bromo-2,3,4,9-tetrahydro-1H-carbazol-1-yl)-4-trifluoromethyl-benzamide] has an EC50 of 10 to 40 nM. N#Cc1ccc(C(=O)NC2CCCc3c2[nH]c2ccc(Br)cc32)cc1 (stereo not shown) [Compound 132, N-(6-Bromo-2,3,4,9-tetrahydro-1H-carbazol-1-yl)-4-cyano-benzamide] was tested, and the EC50 was 10 to 40 nM. O=C(NC1CCCc2c1[nH]c1ccc(Br)cc21)c1ccc(F)cc1F (stereo not shown) [Compound 133, N-(6-Bromo-2,3,4,9-tetrahydro-1H-carbazol-1-yl)-2,4-difluoro-benzamide] gave an EC50 of less than 10 nM. Work on O=C(NC1CCCc2c1[nH]c1ccc(Br)cc21)c1ccc(Cl)cc1 (stereo not shown) [Compound 134, N-(6-Bromo-2,3,4,9-tetrahydro-1H-carbazol-1-yl)-4-chloro-benzamide] yielded an EC50 of 10 to 40 nM. With Clc1ccc(NC2CCCc3c2[nH]c2ccc(Cl)cc32)cc1 (stereo not shown) [Compound 135, (4-Chloro-phenyl)-(6-chloro-2,3,4,9-tetrahydro-1H-carbazol-1-yl)-amine] the EC50 was 10 to 40 nM. Work on COc1ccc(NC2CCCc3c2[nH]c2ccc(Cl)cc32)cc1 (stereo not shown) [Compound 136, (6-Chloro-2,3,4,9-tetrahydro-1H-carbazol-1-yl)-(4-methoxy-phenyl)-amine] yielded an EC50 of less than 10 nM. For FC(F)(F)c1ccc(NC2CCCc3c2[nH]c2ccc(Cl)cc32)cc1 (stereo not shown) [Compound 137, (6-Chloro-2,3,4,9-tetrahydro-1H-carbazol-1-yl)-(4-trifluoromethyl-phenyl)-amine], the EC50 was less than 10 nM. Work on FC(F)(F)c1ccc2[nH]c3c(c2c1)CCCC3Nc1ccc(Cl)cc1 (stereo not shown) [Compound 138, (4-Chloro-phenyl)-(6-trifluoromethyl-2,3,4,9-tetrahydro-1H-carbazol-1-yl)-amine] yielded an EC50 of 10 to 40 nM. COc1ccc(NC2CCCc3c2[nH]c2ccc(C(F)(F)F)cc32)cc1 (stereo not shown) [Compound 139, (4-Methoxy-phenyl)-(6-trifluoromethyl-2,3,4,9-tetrahydro-1H-carbazol-1-yl)-amine] showed an EC50 of 10 to 40 nM. Molecule FC(F)(F)c1ccc(NC2CCCc3c2[nH]c2ccc(C(F)(F)F)cc32)cc1 (stereo not shown) [Compound 140, (4-Trifluoromethyl-phenyl)-(6-trifluoromethyl-2,3,4,9-tetrahydro-1H-carbazol-1-yl)-amine] has an EC50 of 10 to 40 nM. Molecule Brc1ccc2[nH]c3c(c2c1)CCCC3Nc1ncccn1 (stereo not shown) [Compound 141, (6-Bromo-2,3,4,9-tetrahydro-1H-carbazol-1-yl)-pyrimidin-2-yl-amine] has an EC50 of less than 10 nM. For Brc1ccc2[nH]c3c(c2c1)CCCC3c1nc2ccccc2[nH]1 (stereo not shown) [Compound 142, 1-(1H-Benzoimidazol-2-yl)-6-bromo-2,3,4,9-tetrahydro-1H-carbazole], the EC50 was 10 to 40 nM. O=C(NC1CCCc2c1[nH]c1ccc(Cl)cc21)c1cccs1 (stereo not shown) [Compound 143, Thiophene-2-carboxylic acid (6-chloro-2,3,4,9-tetrahydro-1H-carbazol-1-yl)-amide] showed an EC50 of 40 to 200 nM. O=C(NC1CCCc2c1[nH]c1ccc(Cl)cc21)c1ccco1 (stereo not shown) [Compound 144, Furan-2-carboxylic acid (6-chloro-2,3,4,9-tetrahydro-1H-carbazol-1-yl)-amide] gave an EC50 of 40 to 200 nM. COc1ccc(C(=O)NC2CCCc3c2[nH]c2ccc(Cl)cc32)cc1 (stereo not shown) [Compound 145, N-(6-Chloro-2,3,4,9-tetrahydro-1H-carbazol-1-yl)-4-methoxy-benzamide] was tested, and the EC50 was 10 to 40 nM. O=C(NC1CCCc2c1[nH]c1ccc(Br)cc21)c1ccc([N+](=O)[O-])o1 (stereo not shown) [Compound 146, 5-Nitro-furan-2-carboxylic acid (6-bromo-2,3,4,9-tetrahydro-1H-carbazol-1-yl)-amide] was tested, and the EC50 was 40 to 200 nM. For O=C(NC1CCCc2c1[nH]c1ccc(Br)cc21)C1CC1 (stereo not shown) [Compound 147, Cyclopropanecarboxylic acid (6-bromo-2,3,4,9-tetrahydro-1H-carbazol-1-yl)-amide], the EC50 was 40 to 200 nM.
